Experimental data: publication PMC5889410, “Design and Biological Evaluation of Antifouling Dihydrostilbene Oxime Hybrids” (Marine Biotechnology (New York, N.y.), 2018)
In brackets after ≈: the same amount, converted by molar mass.

Legend:
Vibrio proteolyticus = test: Bacterial growth assay (OD 630 nm); format: cell-based; settings: 48 h incubation, 10–0.01 μg/mL tested, read-out: MIC against the growth of marine bacteria, V.p.
From the text: (§1) Cyprid larvae of B. improvisus were reared in a laboratory cultivating system at Tjärnö Marine Biological Laboratory, University of Gothenburg, Sweden, as previously described by Berntsson et al. ([2000]). Four pure, but non-axenic, marine microalgae (obtained from Algobank, Caen, France) and 10 marine bacterial strains were used (Table 1) as representative microfoulers. These strains represent fouling species encountered in both estuarine and marine environments (Moodie et al. [2017b]). The bacteria were grown at 26 °C in a marine medium, composed of 0.5% peptone (neutralized bacteriological peptone, Oxoid Ltd.) in filtered (Whatman 1001–270, pore size 11 μm) natural seawater. Microalgae were grown and maintained at 22 °C in F/2 medium.
(§2) Bacterial strain adhesion and growth were determined according to the methods of Thabard et al. ([2011]). Bacterial suspensions (100-μL aliquots, 2 × 10^8 colony forming units/mL) were aseptically added to the compound containing microplate wells (10–0.01 μg/mL), and the plates were incubated for 48 h at 26 °C. Media only was used as a blank. Bacterial growth was monitored spectroscopically at 630 nm. The minimal inhibitory concentration (MIC) for bacterial growth was defined as the lowest concentration which results in a decrease in OD. After 48-h incubation time, the bacterial adhesion assay was conducted by emptying the wells and rinsing with sterile seawater (100 μL) to remove non-attached cells, and air-drying at room temperature. The residual bacterial biofilm was stained with aqueous crystal violet (100 μL, 0.3% v/v) and the OD measured at 595 nm (Sonak and Bhosle [1995]). […] If inhibition was observed, toxicity tests were conducted. The well contents were transferred into a flask of fresh media, and growth was measured after 5 days of additional incubation. The mode of action was deemed biostatic if an increase in OD was measured at 595 nm (Moodie et al. [2017a]).

Roseobacter litoralis = test: Bacterial growth assay (OD 630 nm); format: cell-based; settings: 48 h incubation, 10–0.01 μg/mL tested, read-out: MIC against the growth of marine bacteria, R.l.
From the text: as §1, §2

Vibrio aestuarianus = test: Bacterial growth assay (OD 630 nm); format: cell-based; settings: 48 h incubation, 10–0.01 μg/mL tested, read-out: MIC against the growth of marine bacteria, V.a.
From the text: as §1, §2

Shewanella putrefaciens = test: Bacterial growth assay (OD 630 nm); format: cell-based; settings: 48 h incubation, 10–0.01 μg/mL tested, read-out: MIC against the growth of marine bacteria, S.p.
From the text: as §1, §2

Halomonas aquamarina = test: Bacterial growth assay (OD 630 nm); format: cell-based; settings: Vreelandella aquamarina, 48 h incubation, 10–0.01 μg/mL tested, read-out: MIC against the growth of marine bacteria, H.a.
From the text: as §1, §2

Vibrio natriegens = test: Bacterial growth assay (OD 630 nm); format: cell-based; settings: 48 h incubation, 10–0.01 μg/mL tested, read-out: MIC against the growth of marine bacteria, V.n.
From the text: as §1, §2

[1] = test system: Pseudoalteromonas elyakovii; test: Bacterial growth assay (OD 630 nm); format: cell-based; settings: 48 h incubation, 10–0.01 μg/mL tested, read-out: MIC against the growth of marine bacteria, P.e.
From the text: as §1, §2

Vibrio carchariae = test: Bacterial growth assay (OD 630 nm); format: cell-based; settings: Vibrio harveyi, 48 h incubation, 10–0.01 μg/mL tested, read-out: MIC against the growth of marine bacteria, V.c.
From the text: as §1, §2

Vibrio harveyi = test: Bacterial growth assay (OD 630 nm); format: cell-based; settings: 48 h incubation, 10–0.01 μg/mL tested, read-out: MIC against the growth of marine bacteria, V.h.
From the text: as §1, §2

Porphyridium purpureum [2] = test: Microalgal growth assay (chlorophyll a); format: cell-based; settings: 120 h, 5 days incubation, 10–0.01 μg/mL tested, read-out: MIC against the growth (G) of microalgae, P. purpureum
From the text: as §1
(§3) Microplates containing the compounds in ranging concentrations (10–0.01 μg/mL) were prepared from MeOH stock solutions as previously described (Trepos et al. [2014]; Moodie et al. [2017a]). Microalgal stock solutions were prepared using the chlorophyll analysis methodology of Chambers et al. ([2011]). The pretreated microplate wells were treated with 100 μL of the algal stock solutions (0.1 mg chlorophyll a/mL). The plates were then incubated for 5 days at 20 °C under constant light exposure (140 μmol m^−2 s^−1). Both microalgal adhesion and growth inhibition were measured. Growth was determined by analysis of liberated chlorophyll a after centrifugation and methanol addition. Chlorophyll a was quantified fluorometrically. MIC value for algal growth was defined as the lowest concentration yielding a decrease in chlorophyll a content. Microalgal adhesion was determined in an analogous manner where the non-attached algal cells were removed prior to methanol addition (100 μL), releasing chlorophyll a from the remaining algal biofilms. The MIC for adhesion was defined as the lowest compound concentration causing a reduction in […]. Toxicity experiments were performed in an analogous manner to those described for the bacterial assays.

Cylindrotheca closterium = test: Microalgal growth assay (chlorophyll a); format: cell-based; settings: 120 h, 5 days incubation, 10–0.01 μg/mL tested, read-out: MIC against the growth (G) of microalgae, C. closterium
From the text: as §1, §3

Halamphora coffeaeformis [3] = test: Microalgal growth assay (chlorophyll a); format: cell-based; settings: Halamphora coffeiformis, 120 h, 5 days incubation, 10–0.01 μg/mL tested, read-out: MIC against the growth (G) of microalgae, H. coffeaformis
From the text: as §1, §3

[4] = test system: Pleurochrysis roscoffensis; test: Microalgal growth assay (chlorophyll a); format: cell-based; settings: Chrysotila roscoffensis, 120 h, 5 days incubation, 10–0.01 μg/mL tested, read-out: MIC against the growth (G) of microalgae, P. roscoffensis
From the text: as §1, §3

[5] = test system: Balanus improvisus cyprid larvae; test: whole plant or invertebrate; format: in vivo; settings: for IC50: Amphibalanus improvisus, 120 h, read-out: IC50 (cyprid settlement inhibition); for Toxicity (%) (dead cyprids): Balanus improvisus, in vivo, 5 days, 5 μg/mL
From the text: as §1
Stock solutions of compounds in DMSO were serially diluted in untreated polystyrene Petri dishes containing 10 mL of filtered (0.2 μm) seawater, affording final concentrations ranging from 0.1 to 10 μg/mL. Freshly molted balanide cyprids (18–22) were added to each Petri dish and incubated at ambient temperature (20–25 °C) for 5 days. Cyprid metamorphosis was assessed using a dissecting microscope where the numbers of juvenile settled, free-swimming, and dead cyprids were noted. Initial compound screening was conducted at 5 μg/mL, and full IC50 determination was performed only on compounds displaying > 50% inhibition at that concentration. The IC50 was defined as the concentration preventing 50% of the cyprid settlement on the Petri dish surface. Each concentration was replicated four times (n = 4), and dishes containing 0.1% of DMSO were used as negative controls. The commercial AF agent Sea-nine™ was employed as a positive control.

marine bacteria [6] = test: Bacterial adhesion assay, whole panel of ten strains; format: cell-based, 10 marine bacterial strains; settings: tested up to 10 μg/mL, active = MIC of 10 μg/mL or below
From the text: as §1, §2

marine bacteria [7] = test: Bacterial growth assay, whole panel of ten strains; format: cell-based, 10 marine bacterial strains; settings: tested up to 10 μg/mL
From the text: as §1, §2

[8] = test system: Pleurochrysis roscoffensis; test: Microalgal adhesion assay (chlorophyll a); format: cell-based; settings: Chrysotila roscoffensis, 120 h, 5 days incubation, 10–0.01 μg/mL tested, read-out: MIC against the adhesion (A) of microalgae, P. roscoffensis
From the text: as §1, §3

Porphyridium purpureum [9] = test: Microalgal adhesion assay (chlorophyll a); format: cell-based; settings: 120 h, 5 days incubation, 10–0.01 μg/mL tested, read-out: MIC against the adhesion (A) of microalgae, P. purpureum
From the text: as §1, §3

Halamphora coffeaeformis [10] = test: Microalgal adhesion assay (chlorophyll a); format: cell-based; settings: Halamphora coffeiformis, 120 h, 5 days incubation, 10–0.01 μg/mL tested, read-out: MIC against the adhesion (A) of microalgae, H. coffeaformis
From the text: as §1, §3

microalgae = test: Microalgal adhesion and growth, whole panel of four species; format: cell-based, four marine microalgae; settings: 10–0.01 μg/mL tested
From the text: as §1, §3

Row | Compound | MIC (Vibrio proteolyticus) | MIC (Roseobacter litoralis) | MIC (Vibrio aestuarianus) | MIC (Shewanella putrefaciens) | MIC (Halomonas aquamarina) | MIC (Vibrio natriegens) | MIC [1] | MIC (Vibrio carchariae) | MIC (Vibrio harveyi) | MIC (Porphyridium purpureum [2]) | MIC (Cylindrotheca closterium) | MIC (Halamphora coffeaeformis [3]) | MIC [4] | IC50 [5] | Toxicity (%) (dead cyprids) [5] | MIC / activity against the adhesion of all bacteria tested (marine bacteria [6]) | MIC / activity against the growth of all bacteria tested (marine bacteria [7]) | MIC [8] | also measured
1 | COc1ccc(C(Cc2ccc(O)cc2)=NO)cc1OC [Compound 8, 1-(3,4-dimethoxyphenyl)-1-hydroxyimino-2-(4’-hydroxyphenyl)-ethane] | > 10 µg/mL | > 10 µg/mL | > 10 µg/mL | 1 µg/mL (≈ 3.48 µM) | 10 µg/mL (≈ 34.8 µM) | > 10 µg/mL | > 10 µg/mL | > 10 µg/mL | > 10 µg/mL | > 10 µg/mL | 10 µg/mL (≈ 34.8 µM) | 10 µg/mL (≈ 34.8 µM) | 10 µg/mL (≈ 34.8 µM) | 5 µg/mL (≈ 17.4 µM) | 0.0% | ^aCompounds 7, 8, 10, 11, and 12 were inactive against the adhesion of all bacteria tested up to 10 μg/mL |  |  | 
2 | COc1cc(C(Cc2ccc(O)cc2)=NO)ccc1O [Compound 12, 1-(3-methoxy-4-hydroxyphenyl)-1-hydroxyimino-2-(4’-hydroxyphenyl)-ethane] | > 10 µg/mL | 1 µg/mL (≈ 3.66 µM) | > 10 µg/mL | 0.1 µg/mL (≈ 0.366 µM) | 0.1 µg/mL (≈ 0.366 µM) | > 10 µg/mL | 10 µg/mL (≈ 36.6 µM) | > 10 µg/mL | > 10 µg/mL | > 10 µg/mL | > 10 µg/mL | 10 µg/mL (≈ 36.6 µM) | 10 µg/mL (≈ 36.6 µM) | 2.5 µg/mL (≈ 9.15 µM) | 3.5% |  | active against four strains |  | 
3 | COc1ccc(CC(=NO)c2ccc(O)c(O)c2)cc1 [Compound 10, 1-(3,4-Dihydroxyphenyl)-1-Hydroxyimino-2-(4′-Methoxyphenyl)-Ethane] | > 10 µg/mL | > 10 µg/mL | > 10 µg/mL | > 10 µg/mL | > 10 µg/mL | 10 µg/mL (≈ 36.6 µM) | 1 µg/mL (≈ 3.66 µM) | > 10 µg/mL | > 10 µg/mL | > 10 µg/mL | 10 µg/mL (≈ 36.6 µM) | 1 µg/mL (≈ 3.66 µM) | 1 µg/mL (≈ 3.66 µM) | 5 µg/mL (≈ 18.3 µM) | 2.6% | ^aCompounds 7, 8, 10, 11, and 12 were inactive against the adhesion of all bacteria tested up to 10 μg/mL |  | 0.1 µg/mL (≈ 0.366 µM) | 
4 | COc1ccc(C(Cc2ccccc2)=NO)cc1OC [Compound 7, 1-(3,4-dimethoxyphenyl)-1-hydroxyimino-2-phenylethane] | > 10 µg/mL | > 10 µg/mL | 10 µg/mL (≈ 36.9 µM) | > 10 µg/mL | > 10 µg/mL | > 10 µg/mL | > 10 µg/mL | 10 µg/mL (≈ 36.9 µM) | 1 µg/mL (≈ 3.69 µM) | 10 µg/mL (≈ 36.9 µM) | 1 µg/mL (≈ 3.69 µM) | 0.1 µg/mL (≈ 0.369 µM) | 0.01 µg/mL (≈ 0.0369 µM) | 2.5 µg/mL (≈ 9.21 µM) | 5.8% |  | modest activity |  | MIC (Porphyridium purpureum [9]): 1 µg/mL (≈ 3.69 µM); MIC (Halamphora coffeaeformis [10]): 0.01 µg/mL (≈ 0.0369 µM); MIC / activity against the attachment and growth of microalgae (microalgae): inhibited both the settlement and growth of all of the tested species
5 | COc1ccc(CC(=NO)c2ccc(OC)c(OC)c2)cc1 [Compound 9, 1-(3,4-dimethoxyphenyl)-1-hydroxyimino-2-(4’-methoxyphenyl)-ethane] | > 10 µg/mL | > 10 µg/mL | > 10 µg/mL | 0.1 µg/mL (≈ 0.332 µM) | 10 µg/mL (≈ 33.2 µM) | > 10 µg/mL | > 10 µg/mL | > 10 µg/mL | > 10 µg/mL | > 10 µg/mL | 10 µg/mL (≈ 33.2 µM) | 10 µg/mL (≈ 33.2 µM) | > 10 µg/mL | 1.5 µg/mL (≈ 4.98 µM) | 0.0% | displayed inhibitory activities |  | 10 µg/mL (≈ 33.2 µM) | 
